Source: patent US7629361B2, “Salt of (S)-pantoprazole and its hydrates” (NYCOMED GmbH, priority 2002, dated 2009)
“Also recorded” adds a separate entry of the source.

What was measured:
[1] = Wettability, dissolution rate and solubility compared to racemic pantoprazole magnesium dihydrate
[2] = Storage stability of the solid salts at elevated temperature
[3] = Hygroscopicity / water content of the salts; type: physicochemical; conditions: depending on drying conditions and atmospheric humidity
Experimental: Drying was carried out in a vacuum drying cabinet at <50 mbar and 40-45° C. [It is also possible to dispense with drying and to use the moist product (having an MIBK content of 10-20%) directly for step B].

[4] = tested on: pentagastrin-stimulated acid output in the Ghosh-Schild rat; experiment: Inhibition of acid output in the Ghosh-Schild rat after i.v. administration; type: in vivo; conditions: 1 μmol/kg i.v. 3 hours prior to pentagastrin stimulation; 3 to 7.5 hours after administration; FIG. 3; listed as (−)-enantiomer, Dihydrate
Experimental: Female Sprague Dawley CD rats (190-210 g body weight) were anaesthetised with 1.5 g/kg i.m. of urethane, in 5 ml/kg physiologic saline. The trachea was intubated and both, the left external jugular vein (for drug administration) and left femoral vein (for pentagastrin infusion) were cannulated. An esophagus/cardia-cannula (diameter: 1.7 mm) was inserted transorally, and a pylorus-cannula (diameter: 2.6 mm) was inserted through the duodenum, and both were secured with a ligature. The pyloric catheter was led through the right abdominal wall. Body temperature was maintained at 37.0±0.2° C. by means of infrared radiation and electric cushion (automatic infinite control via rectal temperature probe). After thorough flushing (about 50-100 ml), the stomach was continuously perfused with 0.5 ml/min of physiologic saline (37° C.). In the effluate, collected at 15 min intervals, the pH as well as the acid output were determined, the latter by titration to pH 7 with freshly prepared 0.01 N NaOH.
Gastric secretion was stimulated by a continuous intravenous infusion (left femoral vein) of 1 μg/kg×min pentagastrin (in 1.6 ml/h physiologic saline) starting after determination of two basal values of acid secretion, i.e., 30 min after commencement of stomach perfusion. See horizontal bars in FIGS. 1 and 2 for pentagastrin-infusion. […]

human liver microsomes = experiment: Metabolization on human liver microsomes; type: in vitro ADME; conditions: 10 μM, 1 mg/ml protein, 120 min, n=3
Experimental: (§1) I) Human liver microsomes: Pantoprazole racemate and the (+)- and (−)-enantiomers (10 μM each) were incubated with human liver microsomes (source: TEBU, incubation in 1 mg/ml protein, 100 mM Tris-HCl, pH 7.4, 1 mM NADPH2). Reaction was terminated after 30 and 120 minutes by liquid nitrogen, the parent compound was detected by HPLC (10 mM KH2PO4, pH 7.4, acetonitril gradient 20-48%).

Recombinant CYP 2C19 = biological target: T1, Recombinant CYP 2C19 (Homo sapiens, UniProt P33261); experiment: Metabolization on recombinant CYP 2C19; type: in vitro ADME; conditions: 10 μM, 0.1 mg/ml protein, 120 min, n=3
T1 construct: purchased GENTEST
Experimental: as §1
II) Recombinant CYP 2C19 (source: GENTEST); incubation method as described under I) (in presence of 0.1 mg/ml protein).

T1 sequence (P33261 whole entry): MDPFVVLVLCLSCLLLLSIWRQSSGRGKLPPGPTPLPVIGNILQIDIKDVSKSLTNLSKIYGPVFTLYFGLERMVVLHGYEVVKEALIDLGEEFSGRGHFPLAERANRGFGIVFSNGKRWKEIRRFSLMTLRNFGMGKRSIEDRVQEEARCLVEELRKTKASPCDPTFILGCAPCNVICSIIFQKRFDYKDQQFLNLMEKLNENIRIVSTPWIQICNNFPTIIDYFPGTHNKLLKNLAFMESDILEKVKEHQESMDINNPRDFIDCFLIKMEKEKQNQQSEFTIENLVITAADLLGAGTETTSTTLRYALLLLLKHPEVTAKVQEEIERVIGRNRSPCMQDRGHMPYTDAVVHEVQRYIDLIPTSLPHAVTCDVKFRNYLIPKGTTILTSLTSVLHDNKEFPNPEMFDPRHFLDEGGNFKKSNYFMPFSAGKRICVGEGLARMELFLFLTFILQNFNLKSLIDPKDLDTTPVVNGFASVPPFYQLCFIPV

Compound | hygroscopicity (absorption of water) [3] | water content [3] | metabolized on human microsomes (mean) (human liver microsomes) [%] | metabolized on CYP2C19 (mean) (Recombinant CYP 2C19) [%] | also measured
Magnesium (−)-bis{[5-(difluoromethoxy)]-2-[(3,4-dimethoxy-2-pyridinyl)methylsulphinyl]-1H-benzimidazolide} Dihydrate [(−)-pantoprazole magnesium dihydrate] | non-hygroscopic | about 4.4% |  |  | wettability compared to racemic pantoprazole magnesium dihydrate [1]: better wettability; dissolution rate compared to racemic pantoprazole magnesium dihydrate ([1]; pH 7-7.4): considerably higher dissolution rate; solubility relative to racemic pantoprazole magnesium dihydrate ([1]; pH 10): about tenfold; stability (discolouration, decomposition) on storage ([2]; 70° C., one week): completely stable; sum of by-products on storage ([2]; storage under atmospheric conditions, 60-70° C.): remains virtually constant; inhibition of acid secretion, Experiment 2, compared to the (+)-enantiomer [4]: significantly superior; also recorded: significantly more effective
COc1ccnc(C[S+]([O-])c2nc3ccc(OC(F)F)cc3[nH]2)c1OC (single isomer, unassigned; (+)) [(+) enantiomer] |  |  | 44 | 64 | 
COc1ccnc(C[S+]([O-])c2nc3ccc(OC(F)F)cc3[nH]2)c1OC (racemic) [racemate, 5-difluoromethoxy-2-[(3,4-dimethoxy-2-pyridinyl)methylsulphinyl]-1H-benzimidazole] |  |  | 44 | 67 | 
COc1ccnc(C[S+]([O-])c2nc3cc(OC(F)F)ccc3[n-]2)c1OC.[Na+] (single isomer, unassigned; (-)) [(−)-pantoprazole sodium] | absorbs water |  |  |  | purity (according to HPLC) after storage ([2]; storage at 60-70° C., atmospheric conditions, starting purity 99.5%): 96-97%; hygroscopicity (absorption of water) ([3]; listed as (−)-Pantoprazole-Na): hygroscopic
COc1ccnc(C[S+]([O-])c2nc3cc(OC(F)F)ccc3[nH]2)c1OC (single isomer, unassigned; (-)) [(−)-Pantoprazole, (−)-[5-(difluoromethoxy)]-2-[(3,4-dimethoxy-2-pyridinyl)methylsulphinyl]-1H-benzimidazole] |  |  | 26 | 54 | 
COc1ccnc(C[S+]([O-])c2nc3cc(OC(F)F)ccc3[n-]2)c1OC.COc1ccnc(C[S+]([O-])c2nc3cc(OC(F)F)ccc3[n-]2)c1OC.[Ca+2] (single isomer, unassigned; (-)) [(−)-pantoprazole calcium] |  | 4-8% |  |  | 
